Read-outs that look alike come from different tables or passages of the source.

From patent US9676782B2, “Substituted pyrazolo[1,5-a]pyrazines as negative allosteric modulators of metabotropic glutamate receptor 3” (Vanderbilt University, priority 2014, dated 2017) come the findings set out here.

For one assay, the target named is rat mGlu3 (Rattus norvegicus (Rat), UniProt P31422). Kind of assay: mGlu3 Ca2+ flux assay. It counts as cell-based. To be noted: for remaining activity at 30 µM: amplitude of response at 30 μM test compound as % of maximal response to glutamate, read-out: rat mGlu3 Glu max (%); for mGlu3 Glu max: response at 30 μM compound as percentage of maximal glutamate response. A digest of the protocol:
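Cells expressing rat mGlu3 were grown overnight at 37° C. under 5% CO2, then loaded with dye. After dye removal they received 20 μL of assay buffer and sat 10 minutes at room temperature. Calcium flux was read on a Hamamatsu FDSS7000, and fluorescence was expressed as fold over basal and normalized to the maximal glutamate response.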

For a further assay, the target named is rat mGlu5 (Rattus norvegicus (Rat), UniProt P31424). The experiment in a line: mGlu5 Ca2+ flux assay. It counts as cell-based. To be noted: for Fold selectivity (mGlu3 vs. mGlu5): ratio of rat mGlu5 EC50 or IC50 to rat mGlu3 IC50; for mGlu5 Glu max: response at 30 μM compound as percentage of maximal glutamate response; for Emax at 30 µM: PAM, amplitude of response at 30 μM test compound as % of maximal response to glutamate, read-out: rat mGlu5 Glu max (%). A digest of the protocol:
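Transfected cells grown overnight at 37° C/5% CO2, dye-loaded, then 5 min in assay buffer at RT before Ca2+ flux read on FDSS7000. Fluorescence as F/F0 fold over basal, normalized to maximal glutamate response; EC50 from unconstrained 4-parameter logistic fit, triplicates weighted evenly.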
(In general: Calcium assays in cells follow changes in intracellular calcium, usually with a dye or a luminescent sensor.)

[1] abbreviates: read-out: rat mGlu5 EC50 or IC50.
Where [2] appears, read: NAM potency, decrease of glutamate EC80 response, >30,000 = no measurable activity, >10,000 = no plateau, read-out: rat mGlu3 IC50.

Sequence of rat mGlu3 (P31422 23-879): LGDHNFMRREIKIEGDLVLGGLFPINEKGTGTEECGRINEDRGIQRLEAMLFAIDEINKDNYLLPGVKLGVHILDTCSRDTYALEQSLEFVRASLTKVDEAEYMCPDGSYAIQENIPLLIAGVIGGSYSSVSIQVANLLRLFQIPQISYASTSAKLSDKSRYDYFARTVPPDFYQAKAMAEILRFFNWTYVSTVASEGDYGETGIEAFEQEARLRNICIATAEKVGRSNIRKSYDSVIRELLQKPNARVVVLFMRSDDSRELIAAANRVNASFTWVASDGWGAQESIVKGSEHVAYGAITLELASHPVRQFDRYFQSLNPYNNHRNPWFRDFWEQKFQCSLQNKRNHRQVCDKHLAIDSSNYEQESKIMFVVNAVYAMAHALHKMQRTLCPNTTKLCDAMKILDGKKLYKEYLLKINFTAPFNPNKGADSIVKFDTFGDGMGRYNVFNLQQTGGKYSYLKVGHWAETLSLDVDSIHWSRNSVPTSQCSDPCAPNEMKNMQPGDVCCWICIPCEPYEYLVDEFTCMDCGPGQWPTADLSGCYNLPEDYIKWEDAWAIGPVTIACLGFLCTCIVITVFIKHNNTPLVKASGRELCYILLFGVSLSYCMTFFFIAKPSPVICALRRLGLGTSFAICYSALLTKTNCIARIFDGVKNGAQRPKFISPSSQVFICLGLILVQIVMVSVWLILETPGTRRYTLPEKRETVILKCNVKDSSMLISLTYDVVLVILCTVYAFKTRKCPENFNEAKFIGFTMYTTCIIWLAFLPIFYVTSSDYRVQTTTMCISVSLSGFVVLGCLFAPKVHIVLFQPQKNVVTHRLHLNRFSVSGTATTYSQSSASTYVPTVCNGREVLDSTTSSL
Sequence of rat mGlu5 (P31424 21-1203): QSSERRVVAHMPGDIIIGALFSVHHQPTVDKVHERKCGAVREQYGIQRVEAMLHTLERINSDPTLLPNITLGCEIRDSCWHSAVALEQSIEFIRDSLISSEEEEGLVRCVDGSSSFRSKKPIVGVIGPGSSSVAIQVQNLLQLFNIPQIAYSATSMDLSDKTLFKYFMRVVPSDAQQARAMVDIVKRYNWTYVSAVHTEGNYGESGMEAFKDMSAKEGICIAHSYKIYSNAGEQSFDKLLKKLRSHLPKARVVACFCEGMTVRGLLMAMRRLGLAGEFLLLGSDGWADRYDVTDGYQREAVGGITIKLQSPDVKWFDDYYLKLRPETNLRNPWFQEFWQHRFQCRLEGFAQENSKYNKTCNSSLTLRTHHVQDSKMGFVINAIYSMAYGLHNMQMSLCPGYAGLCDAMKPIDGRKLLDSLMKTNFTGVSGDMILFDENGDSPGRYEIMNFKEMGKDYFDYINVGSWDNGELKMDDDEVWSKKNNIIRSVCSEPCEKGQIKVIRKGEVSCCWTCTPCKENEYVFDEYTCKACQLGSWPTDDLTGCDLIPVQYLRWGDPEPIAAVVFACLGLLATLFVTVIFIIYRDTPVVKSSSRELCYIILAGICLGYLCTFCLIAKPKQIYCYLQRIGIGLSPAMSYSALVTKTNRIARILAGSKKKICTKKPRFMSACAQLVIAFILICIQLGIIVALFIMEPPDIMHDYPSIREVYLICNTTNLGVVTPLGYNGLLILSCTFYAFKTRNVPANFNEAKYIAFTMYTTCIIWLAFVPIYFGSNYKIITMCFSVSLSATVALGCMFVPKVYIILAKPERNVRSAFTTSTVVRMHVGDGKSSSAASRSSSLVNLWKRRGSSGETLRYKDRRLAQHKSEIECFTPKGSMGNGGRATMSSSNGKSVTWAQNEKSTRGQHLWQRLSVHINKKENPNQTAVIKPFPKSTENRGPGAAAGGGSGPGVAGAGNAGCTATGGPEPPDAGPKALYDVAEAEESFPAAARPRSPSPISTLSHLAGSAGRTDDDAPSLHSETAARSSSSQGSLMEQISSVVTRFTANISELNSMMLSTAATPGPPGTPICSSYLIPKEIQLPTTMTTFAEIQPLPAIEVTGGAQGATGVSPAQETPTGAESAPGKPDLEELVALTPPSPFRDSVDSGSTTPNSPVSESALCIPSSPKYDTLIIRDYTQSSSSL

Broadly, the IC50 is the midpoint of a concentration-inhibition curve. A word on the EC50: it is the midpoint of the concentration-response curve. `COc1ccc(N(C)Cc2cc3n(n2)CCN(c2cc(F)ccc2F)C3=O)cc1` [Compound 106, 5-(2,5-difluorophenyl)-2-(((4-methoxyphenyl)(methyl)amino)methyl)-6,7-dihydropyrazolo[1,5-a]pyrazin-4(5H)-one]: the remaining activity at 30 µM on rat mGlu3 was 0.79%. For the same compound, on rat mGlu3 (read-out: rat mGlu3 IC50), the IC50 is 1020 nM. In addition, on rat mGlu5, the “Fold selectivity (mGlu3 vs. mGlu5)” value was >29. In addition, the EC50 at rat mGlu5 (setting [1]) was > 30000 nM.
Consider `CN(Cc1cc2n(n1)CCN(c1ccc(F)cc1)C2=O)c1ccccc1F` [Compound 83, 5-(4-fluorophenyl)-2-(((2-fluorophenyl)(methyl)amino)methyl)-6,7-dihydropyrazolo[1,5-a]pyrazin-4(5H)-one], for which, on rat mGlu3 (setting [2]), the IC50 came to 876 nM. In addition, the remaining activity at 30 µM at rat mGlu3 is -0.98%. The “Fold selectivity (mGlu3 vs. mGlu5)” value on rat mGlu5 is >34. Also, the 50% effective concentration (EC50) at rat mGlu5 (setting [1]) is > 30000 nM.
As for `CCN(Cc1cc2n(n1)CCN(c1ccc(F)c(F)c1)C2=O)c1ccc(OC)cc1` [Compound 168, 5-(3,4-difluorophenyl)-2-((ethyl(4-methoxyphenyl)amino)methyl)-6,7-dihydropyrazolo[1,5-a]pyrazin-4(5H)-one], the remaining activity at 30 µM on rat mGlu3 was found to be 1.95%. Also, at rat mGlu3 (read-out: rat mGlu3 IC50), the IC50 was 2120 nM. Moreover, the “Fold selectivity (mGlu3 vs. mGlu5)” value on rat mGlu5 is given as >14. Moreover, on rat mGlu5 (setting [1]), the EC50 was > 30000 nM.
In the case of `COc1ccc(N(C)Cc2cc3n(n2)CCN(c2ccc(OC)cc2)C3=O)cc1` [Compound 114, 5-(4-methoxyphenyl)-2-(((4-methoxyphenyl)(methyl)amino)methyl)-6,7-dihydropyrazolo[1,5-a]pyrazin-4(5H)-one], at rat mGlu3 (setting [2]), the IC50 turned out to be 1370 nM. In addition, on rat mGlu3, the remaining activity at 30 µM was found to be 1.7%. Also, on rat mGlu5, the “Fold selectivity (mGlu3 vs. mGlu5)” value is >21. Also, the EC50 on rat mGlu5 (setting [1]) is > 30000 nM.
With `COc1ccc(N(C)Cc2cc3n(n2)CCN(c2cc(F)cc(Cl)c2)C3=O)cc1` [Compound 131, 5-(3-chloro-5-fluorophenyl)-2-(((4-methoxyphenyl)(methyl)amino)methyl)-6,7-dihydropyrazolo[1,5-a]pyrazin-4(5H)-one], on rat mGlu3, the remaining activity at 30 µM was 1.95%. The IC50 at rat mGlu3 (read-out: rat mGlu3 IC50) was 1370 nM. For the same compound, the “Fold selectivity (mGlu3 vs. mGlu5)” value on rat mGlu5 is reported as >21. At rat mGlu5 (setting [1]), the EC50 is > 30000 nM.
In the case of `O=C1c2cc(CNc3ccccc3F)nn2CCN1c1ccc(F)cc1` [drawing 30 X = NH], the IC50 at rat mGlu3 (Table 2 compounds with X = NH, read-out: mGlu3 IC50) was determined as 944 nM. For the same compound, the “mGlu3 Glu max” value on rat mGlu3 (Table 2 compounds with X = NH) was 2%. Further, at rat mGlu5 (Table 2 compounds with X = NH, read-out: mGlu5 EC50), the EC50 was found to be 2470 nM. For the same compound, the “mGlu5 Glu max” value at rat mGlu5 (Table 2 compounds with X = NH) was 96%.
Turning to `Cc1ccnc(NCc2cc3n(n2)CCN(c2ccc(F)cc2)C3=O)c1` [Compound 161, 5-(4-fluorophenyl)-2-(((4-methylpyridin-2-yl)amino)methyl)-6,7-dihydropyrazolo[1,5-a]pyrazin-4(5H)-one], the IC50 at rat mGlu3 (setting [2]) was found to be 3750 nM. Also, at rat mGlu3, the remaining activity at 30 µM worked out at 1.14%. The “Fold selectivity (mGlu3 vs. mGlu5)” value at rat mGlu5 was >8.0. Moreover, on rat mGlu5 (setting [1]), the EC50 is > 30000 nM.
On to `O=C1c2cc(COc3ccc(F)cc3)nn2CCN1c1ccc(F)cc1` [drawing 32 X = O, reference compound], for which the IC50 at rat mGlu3 (Table 2 compounds with X = O, read-out: mGlu3 IC50) was 108 nM. The “mGlu3 Glu max” value at rat mGlu3 (Table 2 compounds with X = O) is recorded as 1%. The EC50 at rat mGlu5 (Table 2 compounds with X = O, read-out: mGlu5 EC50) was 106 nM. Moreover, the “mGlu5 Glu max” value on rat mGlu5 (Table 2 compounds with X = O) is 71%.
In the case of `O=C1c2cc(CNc3ccc(OC(F)(F)F)cc3)nn2CCN1c1ccc(F)cc1` [Compound 21, 5-(4-fluorophenyl)-2-(((4-(trifluoromethoxy)phenyl)amino)methyl)-6,7-dihydropyrazolo[1,5-a]pyrazin-4(5H)-one], the remaining activity at 30 µM at rat mGlu3 is 13.3%. Moreover, the IC50 at rat mGlu3 (read-out: rat mGlu3 IC50) is > 10000 nM. In addition, at rat mGlu5, the “Fold selectivity (mGlu3 vs. mGlu5)” value is >3. Besides, the EC50 on rat mGlu5 (setting [1]) was > 30000 nM.
Regarding `O=C1c2cc(CNc3ccc(C(F)(F)F)cc3)nn2CCN1c1ccc(F)cc1` [Compound 19, 5-(4-fluorophenyl)-2-(((4-(trifluoromethyl)phenyl)amino)methyl)-6,7-dihydropyrazolo[1,5-a]pyrazin-4(5H)-one], the IC50 on rat mGlu3 (read-out: rat mGlu3 IC50) is > 30000 nM. Besides, the EC50 at rat mGlu5 (setting [1]) was > 30000 nM.
In the case of `COc1ccccc1NCc1cc2n(n1)CCN(c1ccc(F)cc1)C2=O` [Compound 6, 5-(4-fluorophenyl)-2-(((2-methoxyphenyl)amino)methyl)-6,7-dihydropyrazolo[1,5-a]pyrazin-4(5H)-one], the IC50 on rat mGlu3 (setting [2]) came to 3040 nM. For the same compound, the remaining activity at 30 µM at rat mGlu3 is 0.98%. At rat mGlu5, the “Fold selectivity (mGlu3 vs. mGlu5)” value is reported as >9.8. Also, the EC50 on rat mGlu5 (setting [1]) is > 30000 nM.
Regarding `CN(Cc1cc2n(n1)CCN(c1ccc(F)cc1)C2=O)c1cc(F)cc(F)c1` [Compound 94, 2-(((3,5-difluorophenyl)(methyl)amino)methyl)-5-(4-fluorophenyl)-6,7-dihydropyrazolo[1,5-a]pyrazin-4(5H)-one], at rat mGlu3 (setting [2]), the IC50 was 660 nM. Besides, the remaining activity at 30 µM on rat mGlu3 turned out to be 1.58%. Further, on rat mGlu5, the Emax at 30 µM was 29.9% and the “Fold selectivity (mGlu3 vs. mGlu5)” value is reported as >15. The EC50 at rat mGlu5 (setting [1]) was > 10000 nM.
The like results for `C[C@@H]1CN(c2ccc(F)cc2)C(=O)c2cc(CNc3ccccc3F)nn21` [Compound 42, (R)-5-(4-fluorophenyl)-2-(((2-fluorophenyl)amino)methyl)-7-methyl-6,7-dihydropyrazolo[1,5-a]pyrazin-4(5H)-one] were, in that order, 871 nM, 0.89%, 71.4%, >11 and > 10000 nM.
Turning to `COc1ccc(N(C)Cc2cc3n(n2)CCN(c2cccc(F)c2F)C3=O)cc1` [Compound 107, 5-(2,3-difluorophenyl)-2-(((4-methoxyphenyl)(methyl)amino)methyl)-6,7-dihydropyrazolo[1,5-a]pyrazin-4(5H)-one], the IC50 on rat mGlu3 (setting [2]) came out at 1030 nM. In addition, the remaining activity at 30 µM on rat mGlu3 came out at 1.67%. The “Fold selectivity (mGlu3 vs. mGlu5)” value at rat mGlu5 is reported as >29. Moreover, the EC50 on rat mGlu5 (setting [1]) is > 30000 nM.
Consider `CC(Nc1ccc(F)cc1)c1cc2n(n1)CCN(c1ccc(F)cc1)C2=O` (centres unmarked) [Compound 171, 5-(4-fluorophenyl)-2-(1-((4-fluorophenyl)amino)ethyl)-6,7-dihydropyrazolo[1,5-a]pyrazin-4(5H)-one], for which the IC50 at rat mGlu3 (setting [2]) came to 2150 nM. Further, the remaining activity at 30 µM on rat mGlu3 is 0.39%. Also, at rat mGlu5, the “Fold selectivity (mGlu3 vs. mGlu5)” value is >13. The EC50 on rat mGlu5 (setting [1]) is > 30000 nM.
The like results for `Cc1ccc(NCc2cc3n(n2)CCN(c2ccc(F)cc2)C3=O)cc1` [Compound 14, 5-(4-fluorophenyl)-2-((p-tolylamino)methyl)-6,7-dihydropyrazolo[1,5-a]pyrazin-4(5H)-one] were, in that order, 1540 nM, -11.8%, >19 and > 30000 nM.
In the same order, the values of `COc1ccc(N(C)Cc2cc3n(n2)CCN(c2ccc(F)cc2C)C3=O)cc1` [Compound 109, 5-(4-fluoro-2-methylphenyl)-2-(((4-methoxyphenyl)(methyl)amino)methyl)-6,7-dihydropyrazolo[1,5-a]pyrazin-4(5H)-one] are 1320 nM, 2.13%, >22 and > 30000 nM.
